The text below walks through data of patent publication US9493430B2, “Biaryl- or heterocyclic biaryl-substituted cyclohexene derivative compounds as CETP inhibitors” (CHONG KUN DANG PHARMACEUTICAL CORP., priority 2013, dated 2016).

Molecules are shown by their SMILES.

The subject of one test is golden Syrian hamsters. Put plainly: Test for anti-hyperlipidemic effect in hamsters (in vivo). Conditions: Mesocricetus auratus, po, 3 mg/kg orally for 5 days, blood 4 hours after final administration, vs control; for inhibition in vivo at 3 mg/kg: read-out: Decrease in LDL-c (%); for change in vivo at 3 mg/kg: read-out: Increase in HDL-c (%). From the text:
Test for Anti-Hyperlipidemic Effect in Hamsters (In Vivo)
In this test, 8-week-old male golden Syrian hamsters were used. The breeding room was maintained at constant temperature and constant humidity and a 12-hr light/12-hr dark cycle. The animals were allowed access to feed and water ad libitum.
2. Anti-Hyperlipidemic Test in Hamsters
The test animals were acclimated for 1 week before use in the test. The test animals were divided according to body weight into several groups, each consisting of 5-8 animals, and were then administered orally with a dose of 3 mg/kg. A solvent control and a CETP inhibitor were dissolved in imwitor 742: tween 80 (1:1) and administered orally for 5 days, and at 4 hours after the final administration, blood was collected from the heart. The collected blood was centrifuged at 3000 rpm for 15 minutes, and the separated serum was measured for HDL-Cholesterol (Biosystem) and LDL-Cholesterol (Biosystem) using a biochemical analysis instrument (ILab 300 plus, Instrumentation Laboratory).
(§1) 3. Statistical Processing
All test results were expressed as Mean±SEM, and to evaluate the effect of each test group, each test group was compared with the control group using one-way ANOVA test (Dunnett's test, p<0.001).

Another test deals with CETP (Homo sapiens (Human), UniProt P11597). Put plainly: Test for inhibition of cholesteryl ester transfer (in vitro). The test is classed as biochemical. Conditions: human plasma as CETP source, LDL from healthy persons as acceptor, rHDL-agarose donor, 37° C.
From the text: Test for Inhibition of Cholesteryl Ester Transfer (In Vitro)
1. Construction of Cholesteryl Ester Donor
To construct a cholesteryl ester donor to be used in the test, radiolabeled recombinant HDL containing […] (GE healthcare, TRK886, 3.5 μCi/mg of apoA-1) and apoA-1 was synthesized. Then, rHDL-agarose having the recombinant HDL immobilized thereon by CNBr-activated Sepharose 4B (Amersham Biosciences, Sweden) resin was used in the test.
2. Cholesteryl Ester Transfer Test
As a protein source for cholesteryl ester transfer, plasma from healthy persons was used, and as a cholesteryl ester receptor, LDL from healthy persons was used. Samples were treated with each test compound to final concentrations of 16, 80, 400, 2000 and 10000 nM and analyzed in duplicate. For the cholesteryl ester transfer test, 20 μl of plasma, 50 μl of LDL (0.25 mg/ml) and 50 μl of rHDL-agarose (0.25 mg/ml) were added, and a solution containing a test compound was added, followed by reaction at 37° C. Then, centrifugation was performed at 4° C. for 3 minutes to stop the reaction, and 150 μl of the supernatant was taken and transferred to a 96-well plate for radioactivity measurement, and the radioactivity of the plate was measured with a beta-ray detector.
as §1
The ratio of [^3H]-cholesteryl oleate from HDL to LDL was calculated and used as a result value, and from the result value, IC50 value was calculated using GraphPad Prism 5.0.

Chain of CETP (P11597 18-493): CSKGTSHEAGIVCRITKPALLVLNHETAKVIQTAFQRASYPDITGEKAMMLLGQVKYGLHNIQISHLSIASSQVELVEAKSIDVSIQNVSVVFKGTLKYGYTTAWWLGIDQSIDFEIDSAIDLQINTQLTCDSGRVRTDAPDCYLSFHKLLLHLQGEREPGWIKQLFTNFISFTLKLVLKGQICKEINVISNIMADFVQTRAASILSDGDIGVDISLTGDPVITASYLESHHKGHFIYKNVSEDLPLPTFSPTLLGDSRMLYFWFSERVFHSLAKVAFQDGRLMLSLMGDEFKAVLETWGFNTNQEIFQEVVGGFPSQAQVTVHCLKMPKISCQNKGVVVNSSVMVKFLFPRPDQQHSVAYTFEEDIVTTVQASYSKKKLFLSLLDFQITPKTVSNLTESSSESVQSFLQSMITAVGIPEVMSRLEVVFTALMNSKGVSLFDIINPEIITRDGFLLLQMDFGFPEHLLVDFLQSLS

On to `COc1ncc(-c2ccc(C(=O)O)cc2C)cc1C1=C(CN2C(=O)O[C@H](c3cc(C(F)(F)F)cc(C(F)(F)F)c3)[C@@H]2C)CC(C)(C)CC1` [Compound 557, 4-(3-(2-(((4S,5R)-5-(3,5-bis(trifluoromethyl)phenyl)-4-methyl-2-oxooxazolidin-3-yl)methyl)-4,4-dimethylcyclohex-1-enyl)-2-methoxypyridin-5-yl)-3-methylbenzoic acid], for which, in the test on golden Syrian hamsters, the inhibition in vivo at 3 mg/kg worked out at 39% and the change in vivo at 3 mg/kg is 77%. At CETP, this compound registered an IC50 of 5.4 nM.
The corresponding values for `COc1ccc(-c2ccc(C(=O)O)cc2C)cc1C1=C(CN2C(=O)O[C@H](c3cc(C(F)(F)F)cc(C(F)(F)F)c3)[C@@H]2C)CC(C)(C)CC1` [Compound 554, 3′-(2-(((4S,5R)-5-(3,5-bis(trifluoromethyl)phenyl)-4-methyl-2-oxooxazolidin-3-yl)methyl)-4,4-dimethylcyclohex-1-enyl)-4′-methoxy-2-methylbiphenyl-4-carboxylic acid] are 42%, 72% and 5.8 nM.
On the same counts, the results for `Cc1cc(C(=O)O)ccc1-c1cc(F)cc(C2=C(CN3C(=O)O[C@H](c4cc(C(F)(F)F)cc(C(F)(F)F)c4)[C@@H]3C)CC(C)(C)CC2)c1` [Compound 650, 3′-(2-(((4S,5R)-5-(3,5-bis(trifluoromethyl)phenyl)-4-methyl-2-oxooxazolidin-3-yl)methyl)-4,4-dimethylcyclohex-1-enyl)-5′-fluoro-2-methylbiphenyl-4-carboxylic acid] are 24%, 50% and 11.9 nM.
The corresponding values for `C[C@H]1[C@@H](c2cc(C(F)(F)F)cc(C(F)(F)F)c2)OC(=O)N1CC1=C(c2cc(-c3ccc(C(=O)O)cc3C(F)(F)F)ccc2F)CCC(C)(C)C1` [Compound 695, 3′-(2-(((4S,5R)-5-(3,5-bis(trifluoromethyl)phenyl)-4-methyl-2-oxooxazolidin-3-yl)methyl)-4,4-dimethylcyclohex-1-enyl)-4′-fluoro-2-(trifluoromethyl)biphenyl-4-carboxylic acid] are 35%, 71% and 6.4 nM.
Regarding `Cc1cc(C(=O)O)ccc1-c1cc(C2=C(CN3C(=O)O[C@H](c4cc(C(F)(F)F)cc(C(F)(F)F)c4)[C@@H]3C)CC(C)(C)CC2)ccc1F` [Compound 681, 5′-(2-(((4S,5R)-5-(3,5-bis(trifluoromethyl)phenyl)-4-methyl-2-oxooxazolidin-3-yl)methyl)-4,4-dimethylcyclohex-1-enyl)-2′-fluoro-2-methylbiphenyl-4-carboxylic acid], in the test with golden Syrian hamsters, the inhibition in vivo at 3 mg/kg stood at 29% and the change in vivo at 3 mg/kg is 25%. On CETP, this compound displayed a half-maximal inhibitory concentration (IC50) of 6.6 nM.
The corresponding values for `C[C@H]1[C@@H](c2cc(C(F)(F)F)cc(C(F)(F)F)c2)OC(=O)N1CC1=C(c2cc(F)cc(-c3ccc(C(=O)O)cc3C(F)(F)F)c2)CCC(C)(C)C1` [Compound 668, 3′-(2-(((4S,5R)-5-(3,5-bis(trifluoromethyl)phenyl)-4-methyl-2-oxooxazolidin-3-yl)methyl)-4,4-dimethylcyclohex-1-enyl)-5′-fluoro-2-(trifluoromethyl)biphenyl-4-carboxylic acid] are 16%, 44% and 5 nM.
On the same counts, the results for `COc1cc(F)c(-c2ccc(C(=O)O)cc2C)cc1C1=C(CN2C(=O)O[C@H](c3cc(C(F)(F)F)cc(C(F)(F)F)c3)[C@@H]2C)CC(C)(C)CC1` [Compound 574, 5′-(2-(((4S,5R)-5-(3,5-bis(trifluoromethyl)phenyl)-4-methyl-2-oxooxazolidin-3-yl)methyl)-4,4-dimethylcyclohex-1-enyl)-2′-fluoro-4′-methoxy-2-methylbiphenyl-4-carboxylic acid] are 36%, 41% and 3.9 nM.
On the same counts, the results for `COc1ccc(-c2ccc(C(=O)O)cc2C(F)(F)F)cc1C1=C(CN2C(=O)O[C@H](c3cc(C(F)(F)F)cc(C(F)(F)F)c3)[C@@H]2C)CC(C)(C)CC1` [Compound 618, 3′-(2-(((4S,5R)-5-(3,5-bis(trifluoromethyl)phenyl)-4-methyl-2-oxooxazolidin-3-yl)methyl)-4,4-dimethylcyclohex-1-enyl)-4′-methoxy-2-(trifluoromethyl)biphenyl-4-carboxylic acid] are 26%, 65% and 1.6 nM.
For `COc1cc(F)c(-c2ccc(C(=O)O)cc2Cl)cc1C1=C(CN2C(=O)O[C@H](c3cc(C(F)(F)F)cc(C(F)(F)F)c3)[C@@H]2C)CC(C)(C)CC1` [Compound 631, 5′-(2-(((4S,5R)-5-(3,5-bis(trifluoromethyl)phenyl)-4-methyl-2-oxooxazolidin-3-yl)methyl)-4,4-dimethylcyclohex-1-enyl)-2-chloro-2′-fluoro-4′-methoxybiphenyl-4-carboxylic acid], in the test with golden Syrian hamsters, the inhibition in vivo at 3 mg/kg was determined as 30% and the change in vivo at 3 mg/kg was determined as 56%. The same compound registered an IC50 against CETP of 1.9 nM.
The corresponding values for `COc1ncc(-c2ccc(C(=O)O)cc2F)cc1C1=C(CN2C(=O)O[C@H](c3cc(C(F)(F)F)cc(C(F)(F)F)c3)[C@@H]2C)CC(C)(C)CC1` [Compound 586, 4-(3-(2-(((4S,5R)-5-(3,5-bis(trifluoromethyl)phenyl)-4-methyl-2-oxooxazolidin-3-yl)methyl)-4,4-dimethylcyclohex-1-enyl)-2-methoxypyridin-5-yl)-3-fluorobenzoic acid] are 34%, 37% and 13 nM.
Compound `Cc1cc(C(=O)O)ccc1-c1cccc(C2=C(CN3C(=O)O[C@H](c4cc(C(F)(F)F)cc(C(F)(F)F)c4)[C@@H]3C)CC(C)(C)CC2)c1` [Compound 651, 3′-(2-(((4S,5R)-5-(3,5-bis(trifluoromethyl)phenyl)-4-methyl-2-oxooxazolidin-3-yl)methyl)-4,4-dimethylcyclohex-1-enyl)-2-methylbiphenyl-4-carboxylic acid] yielded an IC50 against CETP of 10.7 nM.
The same measure, in the same setting: under `Cc1cc(C(=O)O)ccc1-c1ccc(Cl)c(C2=C(CN3C(=O)O[C@H](c4cc(C(F)(F)F)cc(C(F)(F)F)c4)[C@@H]3C)CC(C)(C)CC2)c1` [Compound 727, 3′-(2-(((4S,5R)-5-(3,5-bis(trifluoromethyl)phenyl)-4-methyl-2-oxooxazolidin-3-yl)methyl)-4,4-dimethylcyclohex-1-enyl)-4′-chloro-2-methylbiphenyl-4-carboxylic acid] stands 11.4 nM.
On the same count and under the same terms, under `CCNC(=O)c1ccc(-c2ccc(F)c(C3=C(CN4C(=O)O[C@H](c5cc(C(F)(F)F)cc(C(F)(F)F)c5)[C@@H]4C)CC(C)(C)CC3)c2)c(C(F)(F)F)c1` [Compound 756, 3′-(2-(((4S,5R)-5-(3,5-bis(trifluoromethyl)phenyl)-4-methyl-2-oxooxazolidin-3-yl)methyl)-4,4-dimethylcyclohex-1-enyl)-N-ethyl-4′-fluoro-2-(trifluoromethyl)biphenyl-4-carboxamide] stands 5.9 nM.
Take `COc1cc(C)c(-c2ccc(C(=O)O)cc2C)cc1C1=C(CN2C(=O)O[C@H](c3cc(C(F)(F)F)cc(C(F)(F)F)c3)[C@@H]2C)CC(C)(C)CC1` [Compound 684, 5′-(2-(((4S,5R)-5-(3,5-bis(trifluoromethyl)phenyl)-4-methyl-2-oxooxazolidin-3-yl)methyl)-4,4-dimethylcyclohex-1-enyl)-4′-methoxy-2,2′-dimethylbiphenyl-4-carboxylic acid]: half-maximal inhibition at CETP (IC50) was put at 1.9 nM. Compared with the last compound, the IC50 is about 3.1-fold lower.
Regarding `COC(=O)c1cccc(-c2ccc(OC)c(C3=C(CN4C(=O)O[C@H](c5cc(C(F)(F)F)cc(C(F)(F)F)c5)[C@@H]4C)CC(C)(C)CC3)c2)c1` [Compound 567, methyl 3′-(2-(((4S,5R)-5-(3,5-bis(trifluoromethyl)phenyl)-4-methyl-2-oxooxazolidin-3-yl)methyl)-4,4-dimethylcyclohex-1-enyl)-4′-methoxybiphenyl-3-carboxylate], the IC50 against CETP was found to be 56.6 nM.

For orientation: IC50 means the concentration at which inhibition is half-maximal. A higher IC50 goes with weaker potency in that assay.
